Test system: macrophages de lignée RAW264.7
Experiment: Toxicity test on RAW264.7 macrophages (crystal violet and neutral red staining)
Type: cell-based, murins
Details: for DO/ml moyenne sur 4 puis ± écart type / Pourcentage de survie par rapport au témoin cellules en milieu seul: 24 h; for hautement toxique jusqu'à: final conclusion
Protocol: La toxicité de AVF1 pour les macrophages de lignée RAW264.7 (ATCC TIB 71) utilisés pour le test iNOS a été déterminée dans l'expérience préliminaire suivante :
Les macrophages de lignée RAW264.7 ont été distribués dans des séries de 4 puits dans une plaque à 96 puits à raison de 1,5 x 10^5/100 µl/ml dans du milieu de culture (D-NEM sans rouge de phénol, Gibco) additionné de 0,2 % d'antibiotique, 1% de L-glutamine et 5% de sérum de veau foetal décomplémenté (produits pour celuture cellulaire Eurobio).
Après 18 heures, différentes concentrations de raison […] de AVF1 ont été ajoutées sous 100 µl de façon à obtenir les concentrations finales de 10^0 à 10^-10%. Après 24 heures de culture supplémentaire, les cellules ont été observées au microscope et colorées selon deux techniques différentes permettant d'obtenir un pourcentage respectivement de cellules adhérentes au plastique (coloration au violet cristal) et de cellules vivantes (coloration au rouge neutre) : • Dans la première technique, les cellules sont lavées avec du PBS + Ca^2+ + Mg^2+ (Gibco) afin d'éliminer les éventuelles cellules mortes flottantes et de maintenir les cellules vivantes sur le plastique. Le colorant (1% de violet cristal, R.A.L. 20% de méthanol, Merck) est ajouté sous 50 µl/puits et laissé 20 minutes à température ambiante. Après plusieurs lavages doux en PBS + Ca^2+ + Mg^2+ , les plaques sont séchées à 37°C et 100 µl de SDS (Sigma, 1% en eau distillée) sont ajoutés par puits. La plaque est laissée 1 heure à température ambiante à l'abri de la lumière pour permettre la dissolution complète du lysat cellulaire. La plaque est ensuite lue au lecteur ELISA (Labsystems) à 550 nm après 15 secondes d'agitation. Le blanc de densité optique (OD) est fait sur une rangée de 8 cupules n'ayant reçu que 50 µl de la solution de violet cristal puis ayant été traitées comme les autres. • Dans la seconde technique, les cellules reçoivent 50 µl de rouge neutre à 0,3% (R.A.L.) qui est pinocyté par les macrophages vivants. Après 2 heures d'incubation, le milieu est enlevé et les cellules sont lavées doucement avec 200 µl de PBS + Ca^2+ + Mg^2+. Les cellules restantes sont ensuite lysées avec 100 µl de SDS et la plaque est mise à 4°C pendant 1 heure pour permettre un relargage complet du colorant. La plaque est ensuite lue au lecteur ELISA à 570 nm avec un filtre de référence de 630 nm après 15 secondes d'agitation. Le blanc de DO est fait sur une colonne de 8 cupules n'ayant reçu que le colorant puis ayant été traitées comme les autres.
Pour la réalisation de cet essai, AVF1 a été préparé de la façon suivante : 1 g a été dissout dans 5 ml de D-MEM sans rouge de phénol. Cette solution à 20% a été stérilisée sur 0,22 µm (Minisart, Sartorius), le pH contrôlé (7,5), aliquotée sous 1 ml et conservée à +4°C. Au moment de l'emploi, cette solution a été diluée afin d'obtenir les concentrations finales désirées.

[1] = ROUGE NEUTRE, second experiment, AVF1 1 10^-7 %
[2] = ROUGE NEUTRE, second experiment, AVF1 1 10^-8 %
[3] = ROUGE NEUTRE, second experiment, AVF1 1 10^-9 %
[4] = ROUGE NEUTRE, second experiment, AVF1 1 10^-10 %
[5] = ROUGE NEUTRE, second experiment, AVF1 5 10^-7 %
[6] = ROUGE NEUTRE, second experiment, AVF1 5 10^-8 %
[7] = ROUGE NEUTRE, second experiment, AVF1 5 10^-9 %
[8] = ROUGE NEUTRE, second experiment, AVF1 5 10^-10 %
[9] = ROUGE NEUTRE, second experiment, AVF1 10^-6 %
[10] = VIOLET CRISTAL, second experiment, AVF1 1 10^-7 %
[11] = VIOLET CRISTAL, second experiment, AVF1 1 10^-8 %
[12] = VIOLET CRISTAL, second experiment, AVF1 1 10^-9 %
[13] = VIOLET CRISTAL, second experiment, AVF1 1 10^-10 %
[14] = VIOLET CRISTAL, second experiment, AVF1 5 10^-7 %
[15] = VIOLET CRISTAL, second experiment, AVF1 5 10^-8 %
[16] = VIOLET CRISTAL, second experiment, AVF1 5 10^-9 %
[17] = VIOLET CRISTAL, second experiment, AVF1 5 10^-10 %
[18] = VIOLET CRISTAL, second experiment, AVF1 10^-6 %

Q: Which results are given for `CC(C)(C)c1cc(C(=O)OCCOCCOCCOCCOCCOCCOCCOCCO)cc(C(C)(C)C)c1O` [AVF1, 3,5-di-t-butyl-4-hydroxybenzoate d'octaoxyéthylèneglycol]?
A: n'est plus toxique à partir de (RAW 264.7 macrophages after 24 heures de culture, non-toxic from this concentration downwards): ≤ 10^-6%; DO/ml moyenne sur 4 puis ± écart type (ROUGE NEUTRE, AVF1 0,5 %): 0 DO/ml; Pourcentage de survie par rapport au témoin cellules en milieu seul (ROUGE NEUTRE, AVF1 0,5 %): 0%; DO/ml moyenne sur 4 puis ± écart type (ROUGE NEUTRE, AVF1 1 10^-2 %): 0 DO/ml; Pourcentage de survie par rapport au témoin cellules en milieu seul (ROUGE NEUTRE, AVF1 1 10^-2 %): 6%; DO/ml moyenne sur 4 puis ± écart type (ROUGE NEUTRE, AVF1 1 10^-3 %): 0 DO/ml; Pourcentage de survie par rapport au témoin cellules en milieu seul (ROUGE NEUTRE, AVF1 1 10^-3 %): 0%; DO/ml moyenne sur 4 puis ± écart type (ROUGE NEUTRE, AVF1 1 10^-4 %): 0,010 ± 0,002 DO/ml; Pourcentage de survie par rapport au témoin cellules en milieu seul (ROUGE NEUTRE, AVF1 1 10^-4 %): 1%; DO/ml moyenne sur 4 puis ± écart type (ROUGE NEUTRE, AVF1 1 10^-5 %): 0,060 ± 0,034 DO/ml; Pourcentage de survie par rapport au témoin cellules en milieu seul (ROUGE NEUTRE, AVF1 1 10^-5 %): 41%; DO/ml moyenne sur 4 puis ± écart type (ROUGE NEUTRE, AVF1 1 %): 0 DO/ml; Pourcentage de survie par rapport au témoin cellules en milieu seul (ROUGE NEUTRE, AVF1 1 %): 0%; DO/ml moyenne sur 4 puis ± écart type (ROUGE NEUTRE, AVF1 5 10^-3 %): 0 DO/ml; Pourcentage de survie par rapport au témoin cellules en milieu seul (ROUGE NEUTRE, AVF1 5 10^-3 %): 3%; DO/ml moyenne sur 4 puis ± écart type (ROUGE NEUTRE, AVF1 5 10^-4 %): 0 DO/ml; Pourcentage de survie par rapport au témoin cellules en milieu seul (ROUGE NEUTRE, AVF1 5 10^-4 %): 0%; DO/ml moyenne sur 4 puis ± écart type (ROUGE NEUTRE, AVF1 5 10^-5 %): 0,023 ± 0,003 DO/ml; Pourcentage de survie par rapport au témoin cellules en milieu seul (ROUGE NEUTRE, AVF1 5 10^-5 %): 16%; DO/ml moyenne sur 4 puis ± écart type (ROUGE NEUTRE, AVF1 5 10^-6 %): 0,476 ± 0,034 DO/ml; Pourcentage de survie par rapport au témoin cellules en milieu seul (ROUGE NEUTRE, AVF1 5 10^-6 %): 70%; DO/ml moyenne sur 4 puis ± écart type [1]: 0,605 ± 0,024 DO/ml; Pourcentage de survie par rapport au témoin cellules en milieu seul [1]: 95%; DO/ml moyenne sur 4 puis ± écart type [2]: 0,601 ± 0,121 DO/ml; Pourcentage de survie par rapport au témoin cellules en milieu seul [2]: 95%; DO/ml moyenne sur 4 puis ± écart type [3]: 0,594 ± 0,083 DO/ml; Pourcentage de survie par rapport au témoin cellules en milieu seul [3]: 93%; DO/ml moyenne sur 4 puis ± écart type [4]: 0,609 ± 0,053 DO/ml; Pourcentage de survie par rapport au témoin cellules en milieu seul [4]: 96%; DO/ml moyenne sur 4 puis ± écart type [5]: 0,652 ± 0,089 DO/ml; Pourcentage de survie par rapport au témoin cellules en milieu seul [5]: 100%; DO/ml moyenne sur 4 puis ± écart type [6]: 0,575 ± 0,040 DO/ml; Pourcentage de survie par rapport au témoin cellules en milieu seul [6]: 90%; DO/ml moyenne sur 4 puis ± écart type [7]: 0,545 ± 0,015 DO/ml; Pourcentage de survie par rapport au témoin cellules en milieu seul [7]: 86%; DO/ml moyenne sur 4 puis ± écart type [8]: 0,573 ± 0,030 DO/ml; Pourcentage de survie par rapport au témoin cellules en milieu seul [8]: 90%; DO/ml moyenne sur 4 puis ± écart type [9]: 0,602 ± 0,059 DO/ml; Pourcentage de survie par rapport au témoin cellules en milieu seul [9]: 95%; DO/ml moyenne sur 4 puis ± écart type (VIOLET CRISTAL, AVF1 0,5 %): 0,118 ± 0,027 DO/ml; Pourcentage de survie par rapport au témoin cellules en milieu seul (VIOLET CRISTAL, AVF1 0,5 %): 6%; DO/ml moyenne sur 4 puis ± écart type (VIOLET CRISTAL, AVF1 1 10^-2 %): 0,118 ± 0,027 DO/ml; Pourcentage de survie par rapport au témoin cellules en milieu seul (VIOLET CRISTAL, AVF1 1 10^-2 %): 6%; DO/ml moyenne sur 4 puis ± écart type (VIOLET CRISTAL, AVF1 1 10^-3 %): 0,117 ± 0,027 DO/ml; Pourcentage de survie par rapport au témoin cellules en milieu seul (VIOLET CRISTAL, AVF1 1 10^-3 %): 8%; DO/ml moyenne sur 4 puis ± écart type (VIOLET CRISTAL, AVF1 1 10^-4 %): 0,180 ± 0,016 DO/ml; Pourcentage de survie par rapport au témoin cellules en milieu seul (VIOLET CRISTAL, AVF1 1 10^-4 %): 9%; DO/ml moyenne sur 4 puis ± écart type (VIOLET CRISTAL, AVF1 1 10^-5 %): 0,259 ± 0,033 DO/ml; Pourcentage de survie par rapport au témoin cellules en milieu seul (VIOLET CRISTAL, AVF1 1 10^-5 %): 12%; DO/ml moyenne sur 4 puis ± écart type (VIOLET CRISTAL, AVF1 1 %): 0,172 ± 0,030 DO/ml; Pourcentage de survie par rapport au témoin cellules en milieu seul (VIOLET CRISTAL, AVF1 1 %): 8%; DO/ml moyenne sur 4 puis ± écart type (VIOLET CRISTAL, AVF1 5 10^-3 %): 0,061 ± 0,017 DO/ml; Pourcentage de survie par rapport au témoin cellules en milieu seul (VIOLET CRISTAL, AVF1 5 10^-3 %): 3%; DO/ml moyenne sur 4 puis ± écart type (VIOLET CRISTAL, AVF1 5 10^-4 %): 0,156 ± 0,010 DO/ml; Pourcentage de survie par rapport au témoin cellules en milieu seul (VIOLET CRISTAL, AVF1 5 10^-4 %): 7%; DO/ml moyenne sur 4 puis ± écart type (VIOLET CRISTAL, AVF1 5 10^-5 %): 0,216 ± 0,034 DO/ml; Pourcentage de survie par rapport au témoin cellules en milieu seul (VIOLET CRISTAL, AVF1 5 10^-5 %): 10%; DO/ml moyenne sur 4 puis ± écart type (VIOLET CRISTAL, AVF1 5 10^-6 %): 1,129 ± 0,069 DO/ml; Pourcentage de survie par rapport au témoin cellules en milieu seul (VIOLET CRISTAL, AVF1 5 10^-6 %): 54%; DO/ml moyenne sur 4 puis ± écart type [10]: 0,960 ± 0,070 DO/ml; Pourcentage de survie par rapport au témoin cellules en milieu seul [10]: 86%; DO/ml moyenne sur 4 puis ± écart type [11]: 1,128 ± 0,043 DO/ml; Pourcentage de survie par rapport au témoin cellules en milieu seul [11]: 100%; DO/ml moyenne sur 4 puis ± écart type [12]: 1,010 ± 0,059 DO/ml; Pourcentage de survie par rapport au témoin cellules en milieu seul [12]: 91%; DO/ml moyenne sur 4 puis ± écart type [13]: 0,934 ± 0,050 DO/ml; Pourcentage de survie par rapport au témoin cellules en milieu seul [13]: 84%; DO/ml moyenne sur 4 puis ± écart type [14]: 1,051 ± 0,041 DO/ml; Pourcentage de survie par rapport au témoin cellules en milieu seul [14]: 94%; DO/ml moyenne sur 4 puis ± écart type [15]: 1,089 ± 0,051 DO/ml; Pourcentage de survie par rapport au témoin cellules en milieu seul [15]: 98%; DO/ml moyenne sur 4 puis ± écart type [16]: 0,970 ± 0,062 DO/ml; Pourcentage de survie par rapport au témoin cellules en milieu seul [16]: 87%; DO/ml moyenne sur 4 puis ± écart type [17]: 1,000 ± 0,089 DO/ml; Pourcentage de survie par rapport au témoin cellules en milieu seul [17]: 90%; DO/ml moyenne sur 4 puis ± écart type [18]: 0,991 ± 0,078 DO/ml; Pourcentage de survie par rapport au témoin cellules en milieu seul [18]: 89%; toxique jusqu'à la concentration de (conclusion of first toxicity experiment (Tableaux III, IV), toxic down to this concentration): ≥ 5 x 10^-5%; hautement toxique jusqu'à (conversion of 10^-5 %): ~100 nM; hautement toxique jusqu'à (toxic down to this concentration): ≥ 10^-5%

Reference: patent EP0804408B1, “NOVEL 4-SUBSTITUTED 2,6-DI-TERT-BUTYLPHENOL COMPOUNDS, PHARMACEUTICAL COMPOSITIONS CONTAINING SAME AND PREPARATION METHOD THEREFOR” (priority 1994, dated 1996)
